Data from patent US5010059A, “Pharmaceutical products and lactosyl compounds” (Solco Basel AG, priority 1987, dated 1991).
Where “and” joins values, the source holds several entries; their conditions need not be identical. Equal entries are not always repeated. Where two headings read alike, the source gives them in different places.

Experiments:
GalN/endotoxin hepatitis [1] = conditions: *p ≤ 0.01, **p ≤ 0.001; indomethacin 9 mg/kg; diethylcarbamazine 78 mg/kg i.p. every 45 minutes between 0 and 6 hours; dexamethasone 200 μg/kg i.p.; cited from earlier work
GalN/endotoxin hepatitis [2] = test: GalN/endotoxin hepatitis, cytoprotective effect of the compounds; assay type: in vivo, albino mice of the NMRI strain; conditions: 200 μg/kg i.p. 1 hour before GalN/endotoxin; serum 9 hours later; n.s. not significant, *p ≤ 0.05, **p ≤ 0.01
From the text: In order to gain a deeper insight into the pharmacological properties of the compounds of the formula I, they have been examined for any cytoprotective effects they may have. The cytoprotective effect can be shown, inter alia, by the method described by A. Wendel and G. Tiegs in Biochemical Pharmacology 35 (1986), 2115-2118. This is based on the impairment of liver function as a consequence of sensitization of the liver due to administration of D-galactosamine and simultaneous treatment with endotoxins.
D-galactosamine (abbreviated to GalN) causes in animals liver damage which is regarded as a model for human viral hepatitis. The mechanism is assumed to be an accumulation of toxic galactosamine derivatives in the liver, which results in a diminution in the biosynthesis of macromolecules such as ribonucleic acids, proteins, glycoproteins and glycogens. These changes in the metabolism may in turn result in cell damage or even death of cells in the liver. The extent of liver damage can be determined by the increase in certain liver enzymes (sorbitol dehydrogenase SDH, serum glutamic-oxalic transaminase SGOT, serum glutamic-pyruvic transaminase SGPT) in the blood and by histology of the liver.
The test is carried out as follows.
Male albino mice of the NMRI strain are pretreated intraperitoneally with 200 μg/kg test substance and, 1 hour thereafter, treated intraperitoneally with 700 mg/kg D-galactosamine and 33 μg/kg endotoxins. 9 hours later, blood is removed by cardiac puncture, and the enzymatic activity in the blood serum is determined according to H. U. Bergmeyer [Methods in Enzymatic Analysis, 3rd edition (1985), volume III]. In this experimental model, the […] (Kupffer cells) actually function as immobilized macrophages.
The content of the liver enzymes SDH, SGOT and SGPT in the serum is expressed in international units (IU) for the enzyme activity; 1 IU=1 μmol of substrate converted/minute in one liter.

cutaneous necrosis = test: skin flap test (action promoting healing); assay type: in vivo, Wistar rats; conditions: for Area of surviving skin in mm^2 / Area of the necrotic skin in mm^2 / Area of the skin flap / Area of surviving skin in % / Area of the necrotic skin in %: 1.5 ml i.p. daily for 8 days; for Area of surviving skin in mm^2 / Area of the necrotic skin in mm^2 / Area of the skin flap: 5% concentration; for Area of surviving skin in % / Area of the necrotic skin in %: % of skin flap; for Action of the compound in %: increase in area of surviving skin as percentage compared with control
From the text: Various pharmacological tests can be used to test for any therapeutically beneficial effect on damaged cells and tissues. An action promoting healing can be estimated and measured, in particular, by using the so-called skin flap test; the test is based on the development of a cutaneous necrosis and the inhibition thereof as a consequence of the action of the test substance.
Male Wistar rats of body weight 220-240 g in groups of 8 animals for each value which is to be determined are anesthetized with Nembutal (50 mg/kg, i.p.). A 1×3 cm skin flap is cut out, using a scalpel, from the back, is thoroughly washed and is returned to the original site and is sutured. The test animals are given the compound which is to be tested, in 5% concentration in aqueous solution (containing 0.2% ethanol and 1% polyethylene glycol of molecular weight 20,000--or Carbowax ®20; in each case 1.5 ml intraperitoneal), each day for 8 days; the control animals receive only the aqueous medium. Each day drawings are made of the skin flaps on the scale 1:1, with the necrotic sites being colored black. The animals are sacrificed after 8 days, and the drawings are evaluated using a Biotran apparatus, and the total area of the necrotic sites is measured in mm^2. The action promoting healing is expressed as the increase in the area of surviving skin as a percentage compared with the control.

acute toxicity testing = assay type: in vivo; design: Weight on May 10, 1988 / Weight on May 20, 1988: unit not given here
Protocol: Two groups each of ten mice were observed and weighed each day for 10 days. The animals in the control group each received intraperitoneal administration of 500 μl of a 5 mmol/l solution of Pluronic ® F 68 (manufactured by BASF Wyandotte, Erbsloh/FRG) in physiological saline, while those in the test group received 500 μl of a solution of 6 mg of the compound named above in 6 ml of Pluronic® F 68.

| Structure (SMILES) | SGOT (GalN/endotoxin hepatitis [1]) | SGPT (GalN/endotoxin hepatitis [1]) | SDH (GalN/endotoxin hepatitis [2]) | SGOT (GalN/endotoxin hepatitis [2]) | SGPT (GalN/endotoxin hepatitis [2]) | Area of surviving skin in mm^2 (cutaneous necrosis) | Area of the necrotic skin in mm^2 (cutaneous necrosis) | Area of the skin flap (cutaneous necrosis) | Area of surviving skin in % (cutaneous necrosis) | Area of the necrotic skin in % (cutaneous necrosis) | Action of the compound in % (cutaneous necrosis) | special reactions immediately after the injection (acute toxicity testing; about 20 mg/kg i.p.) | toxic signs (acute toxicity testing; about 20 mg/kg i.p., during the experiment and days which followed) | weight gain versus control group (acute toxicity testing; about 20 mg/kg i.p., test versus control group) | mortality (acute toxicity testing; mouse, in vivo) | Weight on May 20, 1988 (acute toxicity testing; test group, individual animals, 10 days, about 20 mg/kg i.p.) | Weight difference (acute toxicity testing; test group, individual animals, May 10 to May 20, about 20 mg/kg i.p.) | Weight on May 10, 1988 (acute toxicity testing; test group, individual animals, before/at i.p. dosing (about 20 mg/kg)) |
| --- | --- | --- | --- | --- | --- | --- | --- | --- | --- | --- | --- | --- | --- | --- | --- | --- | --- | --- |
| CCN(CC)C(=O)N1CCN(C)CC1 [Diethylcarbamazine] | 270 ± 90 | 290 ± 180 | – | – | – | – | – | – | – | – | – | – | – | – | – | – | – | – |
| CCCCCCCCCCCCCC=CC(O)C(COC1OC(CO)C(O)C(O)C1O)NC(=O)CCCCCCCCCCCCCCC [Glu(Pal)-L-Sph] | – | – | 1690 ± 1680 IU/liter | 410 ± 360 IU/liter | 1470 ± 1460 IU/liter | 178.6 ± 16.8 mm^2 | 85.8 ± 14.7 mm^2 | 264.4 ± 2.6 mm^2 | 67.3% | 32.7% | +55.8% | – | – | – | – | – | – | – |
| CCCCC/C=C\C/C=C\C/C=C\C/C=C\CCCC(=O)N[C@@H](CO[C@@H]1O[C@H](CO)[C@@H](O[C@@H]2O[C@H](CO)[C@H](O)[C@H](O)[C@H]2O)[C@H](O)[C@H]1O)[C@H](O)/C=C/CCCCCCCCCCCCC [Lac(Arach)-D-Sph] | – | – | 355 ± 425 IU/liter | 280 ± 260 IU/liter | 290 ± 210 IU/liter | 211.6 ± 33.3 mm^2 | 111.5 ± 25.8 mm^2 | 323.1 ± 10.4 mm^2 | 64.1% | 35.8% | +36.8% | – | – | – | – | – | – | – |
| CC/C=C\C/C=C\C/C=C\CCCCCCCC(=O)N[C@@H](CO[C@@H]1O[C@H](CO)[C@@H](O)[C@H](O)[C@H]1O)[C@H](O)/C=C/CCCCCCCCCCCCC [Glu(Linolen)-D-Sph] | – | – | 2280 ± 355 IU/liter | 940 ± 170 IU/liter | 3350 ± 630 IU/liter | 107.4 ± 27.3 mm^2 | 184.1 ± 28.9 mm^2 | 291.5 ± 5.5 mm^2 | 37.2% | 62.8% | +144.7% | – | – | – | – | – | – | – |
| CCCCCCCCCCCCC/C=C/[C@@H](O)[C@H](CO[C@@H]1O[C@H](CO)[C@@H](O[C@@H]2O[C@H](CO)[C@H](O)[C@H](O)[C@H]2O)[C@H](O)[C@H]1O)NC(=O)CCCCCCCCCCCCCCC [Lac(Pal)-D-Sph, (2S,3R,4E)-1-[4-0-(8-D-galactopyranosyl) -β-D-glucopyranosyloxy]-2-hexadecanoylamino-4-octadecen-3-ol] | – | – | 80 ± 30 IU/liter | 80 ± 20 IU/liter | 110 ± 70 IU/liter | 197.6 ± 12.6 mm^2 | 113.2 ± 13.0 mm^2 | 310.9 ± 6.9 mm^2 | 63.8% | 36.2% | +47.3% | – | – | – | – | – | – | – |
| CCCCCCCCCCCCCC=CC(O)C(COC1OC(CO)C(O)C(O)C1O)NC(=O)CCCCCCCCCCCCCCC [Gal(Pal)-D-Sph] | – | – | 2400 ± 2800 IU/liter | 1030 ± 1150 IU/liter | 2990 ± 3510 IU/liter | 191.8 ± 18.9 mm^2 | 81.4 ± 18.5 mm^2 | 273.3 ± 5.2 mm^2 | 70.2% | 29.8% | +31.2% | – | – | – | – | – | – | – |
| CC/C=C\C/C=C\C/C=C\CCCCCCCC(=O)N[C@@H](CO[C@@H]1O[C@H](CO)[C@@H](O[C@@H]2O[C@H](CO)[C@H](O)[C@H](O)[C@H]2O)[C@H](O)[C@H]1O)[C@H](O)/C=C/CCCCCCCCCCCCC [Lac(Linolen)-D-Sph, (2S,3R,4E)-1-[4-0-(β-D-Galactopyranosyl)-β-D-glucopyranosyloxy-oxy]-2-[(9Z,12Z,15Z)-9,12,15-octadecatrienoylamino]-4-octadecen-3-ol] | – | – | 290 ± 250 IU/liter | 124 ± 55 IU/liter | 230 ± 76 IU/liter | 195.9 ± 35.5 mm^2 | 128.1 ± 34.2 mm^2 | 324.0 ± 10.0 mm^2 | 60.4% | 39.6% | +22.0% | – | – | – | – | – | – | – |
| CCCCCCCCCCCCC/C=C/[C@@H](O)[C@H](CO[C@@H]1O[C@H](CO)[C@@H](O)[C@H](O)[C@H]1O)NC(=O)CCCCCCCCCCCCCCC [Glu(Pal)-D-Sph] | – | – | 4720 ± 2320 IU/liter | 910 ± 425 IU/liter | 3950 ± 2260 IU/liter | 144.1 ± 9.1 mm^2 | 113.3 ± 10.6 mm^2 | 257.4 ± 6.2 mm^2 | 56.2% | 43.8% | +30.1% | – | – | – | – | – | – | – |
| COc1ccc2c(c1)c(CC(=O)O)c(C)n2C(=O)c1ccc(Cl)cc1 [Indomethacin] | 480 ± 475 | 730 ± 1,040 | – | – | – | – | – | – | – | – | – | – | – | – | – | – | – | – |
| C[C@@H]1C[C@H]2[C@@H]3CCC4=CC(=O)C=C[C@]4(C)[C@@]3(F)[C@@H](O)C[C@]2(C)[C@@]1(O)C(=O)CO [Dexamethasone] | 140 ± 100 | 100 ± 60 | – | – | – | – | – | – | – | – | – | – | – | – | – | – | – | – |
| CCCCCCCCCCCCC/C=C/[C@H](O)[C@@H](CO[C@@H]1O[C@H](CO)[C@@H](O[C@@H]2O[C@H](CO)[C@H](O)[C@H](O)[C@H]2O)[C@H](O)[C@H]1O)NC(=O)CCCCCCCCCCCCCCC [Lac(Pal)-L-Sph, (2R,3S,4E)-1-[4-0-(8-D-galactopyranosyl) -β-D-gluco-pyranosyloxy]-2-hexadecanoylamino-4-octadecen-3-ol] | – | – | 80 IU/liter | 120 ± 80 IU/liter | 80 ± 20 IU/liter | 182.8 ± 11.3 mm^2 | 112.7 ± 13.3 mm^2 | 295.5 ± 6.4 mm^2 | 62.3% | 37.7% | +43.9% | nor were any special reactions immediately after the injection | no toxic signs | strictly comparable in respect of weight gain | No mortality | 35.7 and 33.0 and 35.0 and 34.9 and 34.4 and 39.9 and 28.8 and 34.0 and 30.5 and 31.9 | +6.6 g and +6.0 g and +7.3 g and +7.0 g and +7.7 g and +9.7 g and +4.3 g and +6.4 g and +3.9 g and +5.6 g | 29.1 and 27.0 and 27.7 and 27.9 and 26.7 and 30.2 and 24.5 and 27.6 and 26.6 and 26.3 |
